In patent US8067424B2, “Selective inhibitors for cyclin-dependent kinases” (Emory University, priority 2007, dated 2011):
Read-outs that look alike come from different tables or passages of the source.

How the values were obtained:
Format in all cases: biochemical
NEK6 = NEK6 (Homo sapiens, UniProt Q9HC98); assay: Kinase screen: NEK6 assay
Procedure: (§1) Generally, the same procedure was used for all assays. Since the total assay volume was 25.5 microliters, 0.5 microliters of inhibitors at 51× assay concentration were added to the plates before any other addition.
(§2) The basic procedure was to add 0.5 microliters inhibitor/control in DMSO to plate. Fifteen microliters of enzyme/substrate/buffer mix were added and incubated for 5 min. Ten microliters MgATP at the relevant concentration were added and incubated for 30 min. The assay was stopped by adding 5 microliters of 3% orthophosphoric acid. The assay was transferred to a p81 filter plate and read in a scintillation counter of 30 sec/well. Note that this assay procedure was not followed for MKK1, which instead involved a two-step assay, and PKC alpha, which required the addition of lipid vesicles.
(500-1000 cpm/pmole) and incubated for 30 min at room temperature. Assays were stopped by addition of 5 μl of 0.5 M (3%) orthophosphoric acid and then harvested onto P81 Unifilter plates with a wash buffer of 50 mM orthophosphoric acid.

PHK = assay: Kinase screen: PBK assay (phosphorylase b peptide); settings: for mean activity remaining (as a percentage of the original activity), PHK: 10 micromolar compound
Procedure: as §1, §2
PBK assay: PBK (5-20 mU diluted in 50 mM Na-b-glycerophosphate pH 7.0, 0.1% b-mercaptoethanol) was assayed against phosphorylase b peptide ([…]) (SEQ ID NO: 14) in a final volume of 25.5 μl containing 50 mM Tris pH 8.6, 50 mM Na-b-glycerophosphate, 0.04 mM CaCl2, phosphorylase b peptide (0.196 mM), 10 mM magnesium acetate, 0.02 mM [33P-g-ATP] (500-1000 cpm/pmole) then incubated for 15 min at room temperature. Assays were stopped by addition of 5 μl of 0.5 M (3%) orthophosphoric acid and then harvested onto P81 Unifilter plates with a wash buffer of 50 mM orthophosphoric acid.

NEK2a = target: T1, NEK2a (Homo sapiens, UniProt P51955); assay: Kinase screen: NEK2a assay
T1 sequence (P51955 1-445): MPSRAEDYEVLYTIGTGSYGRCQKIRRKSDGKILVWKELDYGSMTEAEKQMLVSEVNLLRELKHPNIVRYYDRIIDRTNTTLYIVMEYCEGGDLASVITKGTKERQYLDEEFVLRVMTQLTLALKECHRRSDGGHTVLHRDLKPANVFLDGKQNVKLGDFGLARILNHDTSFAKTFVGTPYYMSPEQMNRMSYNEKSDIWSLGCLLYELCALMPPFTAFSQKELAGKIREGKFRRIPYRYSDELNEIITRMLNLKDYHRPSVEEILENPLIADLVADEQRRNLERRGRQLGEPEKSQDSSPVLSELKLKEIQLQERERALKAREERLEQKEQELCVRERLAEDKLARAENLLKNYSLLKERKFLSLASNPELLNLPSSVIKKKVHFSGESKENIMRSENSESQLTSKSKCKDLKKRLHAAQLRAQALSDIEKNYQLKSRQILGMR
Procedure: as §1, §2
NEK2a assay: 5-20 mU of NEK2a (diluted in 50 mM Tris (pH 7.5), 0.1 mM EGTA, 1 mg/ml BSA, 0.1%, b-Mercaptoethanol) was assayed against NEK2a peptide ([…]) (SEQ ID NO: 19) in a final volume of 25.5 μl containing 50 mM Tris (pH 7.5), 0.1 mM EGTA, 0.01% Brij, 0.1%, b-Mercaptoethanol, 300 μM NEK2a peptide, 10 mM magnesium acetate and 0.05 mM [33P-g-ATP] (500-1000 cpm/pmole) and incubated for 30 mins at room temperature. Assays were stopped by addition of 5 µl of 0.5M (3%) orthophosphoric acid. Assays were harvested onto P81 Unifilter plates using a wash buffer of 50 mM orthophosphoric acid.

RSK2 = RSK2 (Homo sapiens, UniProt P51812); assay: Kinase screen: MAPKAP-K1b/RSK2 assay
Sequence of RSK2 (P51812 whole entry, species assumed): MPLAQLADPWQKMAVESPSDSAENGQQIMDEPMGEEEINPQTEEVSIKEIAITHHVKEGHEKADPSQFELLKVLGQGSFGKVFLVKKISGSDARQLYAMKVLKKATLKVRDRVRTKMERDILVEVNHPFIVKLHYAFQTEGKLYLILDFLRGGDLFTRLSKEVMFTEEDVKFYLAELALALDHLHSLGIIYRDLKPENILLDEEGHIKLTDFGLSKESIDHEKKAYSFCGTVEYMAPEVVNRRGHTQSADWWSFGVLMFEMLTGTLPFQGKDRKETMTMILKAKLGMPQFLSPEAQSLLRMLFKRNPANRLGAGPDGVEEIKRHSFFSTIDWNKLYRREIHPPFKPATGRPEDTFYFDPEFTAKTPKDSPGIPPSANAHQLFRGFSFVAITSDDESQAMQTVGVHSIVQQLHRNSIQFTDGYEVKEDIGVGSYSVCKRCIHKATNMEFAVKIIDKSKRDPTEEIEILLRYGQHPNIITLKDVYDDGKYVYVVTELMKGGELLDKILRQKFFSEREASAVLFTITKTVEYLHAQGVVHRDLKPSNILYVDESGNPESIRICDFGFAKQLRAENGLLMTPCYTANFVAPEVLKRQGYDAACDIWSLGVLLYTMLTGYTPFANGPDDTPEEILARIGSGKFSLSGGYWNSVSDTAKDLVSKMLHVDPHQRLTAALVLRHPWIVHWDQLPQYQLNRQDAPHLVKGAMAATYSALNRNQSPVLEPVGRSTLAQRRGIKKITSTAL
Procedure: as §1, §2
MAPKAP-K1b/RSK2 assay: MAPKAP-K1b (5-20 mU diluted in 20 mM MOPS pH 7.5, 1 mM EDTA, 0.01% Brij35, 5% glycerol, 0.1% b-mercaptoethanol, 1 mg/ml BSA) was assayed against substrate peptide ([…]) (SEQ ID NO: 3) in a final volume of […] containing 50 mM Na-b-glycerophosphate (pH 7.5), 0.5 mM EDTA, 30 μM substrate peptide, 10 mM magnesium acetate and 0.05 mM [33P-g-ATP] (50-1000 cpm/pmole) and incubated for 30 min at room temperature. Assays were stopped by addition of 5 μl of 0.5 M (3%) orthophosphoric acid and then harvested onto P81 Unifilter plates with a wash buffer of 50 mM orthophosphoric acid.

MST4 = MST4 (Homo sapiens, UniProt Q9P289); assay: Kinase screen: MST4 assay; settings: 10 micromolar compound; for remaining activity at 10 µM: read-out: mean activity remaining (as a percentage of the original activity), MST4
Sequence of MST4 (Q9P289 whole entry, species assumed): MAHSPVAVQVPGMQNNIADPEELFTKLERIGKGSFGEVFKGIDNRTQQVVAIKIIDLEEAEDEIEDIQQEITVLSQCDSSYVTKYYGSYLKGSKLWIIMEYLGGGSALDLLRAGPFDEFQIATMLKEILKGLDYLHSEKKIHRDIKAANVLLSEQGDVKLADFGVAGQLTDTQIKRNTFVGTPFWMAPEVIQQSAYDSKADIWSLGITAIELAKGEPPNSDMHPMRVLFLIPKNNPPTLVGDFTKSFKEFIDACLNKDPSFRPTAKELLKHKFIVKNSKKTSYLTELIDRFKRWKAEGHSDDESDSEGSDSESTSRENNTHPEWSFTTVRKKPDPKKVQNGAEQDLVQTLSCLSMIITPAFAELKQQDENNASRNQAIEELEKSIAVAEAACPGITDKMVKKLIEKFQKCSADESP
Procedure: as §1, §2
MST4 assay: 5-20 mU of MST4 (diluted in 50 mM Tris (pH 7.5), 0.1 mM EGTA) was assayed against MBP in a final volume of 25.5 μl containing 50 mM Tris (pH 7.5), 0.1 mM EGTA, 0.33 mg/ml MBP, 10 mM magnesium acetate and 0.02 mM [33P-g-ATP] (500-1000 cpm/pmole) and incubated for 30 mins at room temperature. Assays were stopped by addition of 5 μl of 0.5M (3%) orthophosphoric acid. Assays were harvested onto P81 Unifilter plates using a wash buffer of 50 mM orthophosphoric acid.

EPH-A2 = EPH-A2 (Homo sapiens, UniProt P29317); assay: Kinase screen: EPH-A2 assay; settings: 10 micromolar compound; for remaining activity at 10 µM: read-out: mean activity remaining (as a percentage of the original activity), EPH A2
Sequence of EPH-A2 (P29317 24-976, species assumed): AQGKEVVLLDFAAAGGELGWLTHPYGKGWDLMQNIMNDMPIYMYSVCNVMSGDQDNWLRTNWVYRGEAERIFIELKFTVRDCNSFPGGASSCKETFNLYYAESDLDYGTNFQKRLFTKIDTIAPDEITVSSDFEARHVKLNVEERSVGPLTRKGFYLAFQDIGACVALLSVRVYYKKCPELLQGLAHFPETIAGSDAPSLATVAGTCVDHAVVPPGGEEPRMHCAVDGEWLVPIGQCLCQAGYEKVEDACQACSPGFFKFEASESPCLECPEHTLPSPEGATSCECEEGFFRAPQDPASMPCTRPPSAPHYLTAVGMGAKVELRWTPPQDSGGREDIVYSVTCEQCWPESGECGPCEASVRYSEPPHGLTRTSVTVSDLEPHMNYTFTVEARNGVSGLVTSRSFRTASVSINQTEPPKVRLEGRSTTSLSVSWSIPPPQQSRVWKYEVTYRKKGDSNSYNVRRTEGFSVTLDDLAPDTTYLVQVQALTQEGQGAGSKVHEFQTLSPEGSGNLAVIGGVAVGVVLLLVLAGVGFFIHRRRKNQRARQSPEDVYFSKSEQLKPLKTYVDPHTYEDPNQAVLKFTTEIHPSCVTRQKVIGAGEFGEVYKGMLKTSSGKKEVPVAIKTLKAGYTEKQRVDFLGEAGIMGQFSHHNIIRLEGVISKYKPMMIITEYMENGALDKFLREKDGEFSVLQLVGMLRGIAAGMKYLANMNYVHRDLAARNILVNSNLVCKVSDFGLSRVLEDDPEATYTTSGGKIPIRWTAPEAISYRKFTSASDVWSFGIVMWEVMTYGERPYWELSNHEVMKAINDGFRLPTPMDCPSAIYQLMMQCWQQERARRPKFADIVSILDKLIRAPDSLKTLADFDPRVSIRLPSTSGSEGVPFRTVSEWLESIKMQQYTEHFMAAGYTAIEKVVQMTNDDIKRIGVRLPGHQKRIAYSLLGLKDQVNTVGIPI
Procedure: as §1, §2
EPH-A2 assay: EPH-A2 (5-20 mU diluted in 50 mM Tris pH 7.5, 0.1 mM EGTA, 1 mg/ml BSA) was assayed against a substrate peptide (Poly Glut Tyr) in a final volume of 25.5 μl containing 50 mM Tris pH 7.5, 0.1 mg/ml substrate peptide, 10 mM magnesium acetate and 0.05 mM [33P-g-ATP] (50-1000 cpm/pmole) and incubated for 30 min at room temperature. Assays were stopped by addition of 5 μl of 0.5 M (3%) orthophosphoric acid and then harvested onto P81 Unifilter plates with a wash buffer of 50 mM orthophosphoric acid.

[1] = 10 micromolar compound, read-out: mean activity remaining (as a percentage of the original activity), NEK 6
[2] = 10 micromolar compound, read-out: mean activity remaining (as a percentage of the original activity), NEK 2a
[3] = 10 micromolar compound, read-out: mean activity remaining (as a percentage of the original activity), RSK2

Sequence of NEK6 (Q9HC98 whole entry, species assumed): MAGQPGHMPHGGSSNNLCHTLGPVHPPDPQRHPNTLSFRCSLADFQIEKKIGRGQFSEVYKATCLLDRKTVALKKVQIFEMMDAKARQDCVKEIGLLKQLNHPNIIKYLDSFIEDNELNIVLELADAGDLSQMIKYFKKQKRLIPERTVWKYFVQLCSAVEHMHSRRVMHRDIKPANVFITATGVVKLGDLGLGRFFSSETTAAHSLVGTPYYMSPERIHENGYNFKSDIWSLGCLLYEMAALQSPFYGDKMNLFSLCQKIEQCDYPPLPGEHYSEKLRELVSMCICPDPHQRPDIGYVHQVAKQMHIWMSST

Row | Compound | remaining activity at 10 µM (NEK6; NEK6, 10 μM, read-out: Mean Remaining Enzyme Activity (%)) | Mean Remaining Enzyme Activity (%) (PHK; PHK, 10 μM) | remaining activity at 10 µM (NEK2a; NEK2a, 10 μM, read-out: Mean Remaining Enzyme Activity (%)) | remaining activity at 10 µM (RSK2; RSK2, 10 μM, read-out: Mean Remaining Enzyme Activity (%)) | remaining activity at 10 µM (NEK6; [1]) | mean activity remaining (as a percentage of the original activity), PHK (PHK) | remaining activity at 10 µM (NEK2a; [2]) | remaining activity at 10 µM (MST4) | remaining activity at 10 µM (RSK2; [3]) | remaining activity at 10 µM (EPH-A2) | mean activity remaining (as a percentage of the original activity), NEK 6 (NEK6; 10 micromolar compound) | mean activity remaining (as a percentage of the original activity), NEK 2a (NEK2a; 10 micromolar compound) | mean activity remaining (as a percentage of the original activity), MST4 (MST4) | mean activity remaining (as a percentage of the original activity), RSK2 (RSK2; 10 micromolar compound) | mean activity remaining (as a percentage of the original activity), EPH A2 (EPH-A2)
1 | CC(C)c1cnn2c(NCc3ccccc3)cc(NCCCCCCCN)nc12 [BS-181] | 85% | 49% | 92% | 55% |  |  |  |  |  |  |  |  |  |  | 
2 | C=C[C@H](CO)Nc1cc(NCc2ccccc2)n2ncc(C(C)C)c2n1 [ICEC0065] |  |  |  |  | 105% | 68% | 96% | 91% | 84% | 109% |  |  |  |  | 
3 | CC[C@H](CO)Nc1cc(NCc2ccccc2)n2ncc(C(C)C)c2n1 [ICEC0067] |  |  |  |  | 101% | 68% | 75% | 103% | 76% | 101% |  |  |  |  | 
4 | CC(C)c1cnn2c(NCc3ccccc3)cc(N[C@@H](CO)[C@H](O)CO)nc12 [ICEC0318, (3S)-3-(7-(Benzylamino)-3-isopropylpyrazolo[1,5-a]pyrimidin-5-ylamino)butane-1,2,4-triol] |  |  |  |  | 87% | 62% | 102% | 92% | 90% | 116% |  |  |  |  | 
5 | CC(C)c1cnn2c(NCc3ccccc3F)cc(NCCCCCN)nc12 [ICEC-0232] |  |  |  |  |  | 10% |  |  |  |  | 74% | 83% | 85% | 19% | 92%
